Blank lines part the entries; values can stand above or below the molecule they belong to. The source made the active and inactive calls. No cut-off for these calls is given here.
Tests used:
Blood [1] = test: Biodistribution in ddY mouse blood at 3.3 to 6.7 kBq, iv after 2 mins by gamma counting; assay type: ADME, organism-based; conditions: in vivo
Blood [2] = test: Biodistribution in ddY mouse blood at 3.3 to 6.7 kBq, iv after 10 mins by gamma counting; assay type: ADME, organism-based; conditions: in vivo
Blood [3] = test: Biodistribution in ddY mouse blood at 3.3 to 6.7 kBq, iv after 30 mins by gamma counting; assay type: ADME, organism-based; conditions: in vivo, 0.5 h
Blood [4] = test: Biodistribution in ddY mouse blood at 3.3 to 6.7 kBq, iv after 60 mins by gamma counting; assay type: ADME, organism-based; conditions: in vivo, 1 h
Liver [5] = test: Biodistribution in ddY mouse liver at 3.3 to 6.7 kBq, iv after 2 mins by gamma counting; assay type: ADME, organism-based; conditions: in vivo
Liver [6] = test: Biodistribution in ddY mouse liver at 3.3 to 6.7 kBq, iv after 10 mins by gamma counting; assay type: ADME, organism-based; conditions: in vivo
Liver [7] = test: Biodistribution in ddY mouse liver at 3.3 to 6.7 kBq, iv after 30 mins by gamma counting; assay type: ADME, organism-based; conditions: in vivo, 0.5 h
Liver [8] = test: Biodistribution in ddY mouse liver at 3.3 to 6.7 kBq, iv after 60 mins by gamma counting; assay type: ADME, organism-based; conditions: in vivo, 1 h
Kidney [9] = test: Biodistribution in ddY mouse kidney at 3.3 to 6.7 kBq, iv after 2 mins by gamma counting; assay type: ADME, organism-based; conditions: in vivo
Kidney [10] = test: Biodistribution in ddY mouse kidney at 3.3 to 6.7 kBq, iv after 10 mins by gamma counting; assay type: ADME, organism-based; conditions: in vivo
Kidney [11] = test: Biodistribution in ddY mouse kidney at 3.3 to 6.7 kBq, iv after 30 mins by gamma counting; assay type: ADME, organism-based; conditions: in vivo, 0.5 h
Kidney [12] = test: Biodistribution in ddY mouse kidney at 3.3 to 6.7 kBq, iv after 60 mins by gamma counting; assay type: ADME, organism-based; conditions: in vivo, 1 h
Intestine [13] = test: Biodistribution in ddY mouse intestine at 3.3 to 6.7 kBq, iv after 2 mins by gamma counting; assay type: ADME, organism-based; conditions: in vivo
Intestine [14] = test: Biodistribution in ddY mouse intestine at 3.3 to 6.7 kBq, iv after 10 mins by gamma counting; assay type: ADME, organism-based; conditions: in vivo
Intestine [15] = test: Biodistribution in ddY mouse intestine at 3.3 to 6.7 kBq, iv after 30 mins by gamma counting; assay type: ADME, organism-based; conditions: in vivo, 0.5 h
Intestine [16] = test: Biodistribution in ddY mouse intestine at 3.3 to 6.7 kBq, iv after 60 mins by gamma counting; assay type: ADME, organism-based; conditions: in vivo, 1 h
Spleen [17] = test: Biodistribution in ddY mouse spleen at 3.3 to 6.7 kBq, iv after 2 mins by gamma counting; assay type: ADME, organism-based; conditions: in vivo
Spleen [18] = test: Biodistribution in ddY mouse spleen at 3.3 to 6.7 kBq, iv after 10 mins by gamma counting; assay type: ADME, organism-based; conditions: in vivo
Spleen [19] = test: Biodistribution in ddY mouse spleen at 3.3 to 6.7 kBq, iv after 30 mins by gamma counting; assay type: ADME, organism-based; conditions: in vivo, 0.5 h
Spleen [20] = test: Biodistribution in ddY mouse spleen at 3.3 to 6.7 kBq, iv after 60 mins by gamma counting; assay type: ADME, organism-based; conditions: in vivo, 1 h
Pancreas [21] = test: Biodistribution in ddY mouse pancreas at 3.3 to 6.7 kBq, iv after 2 mins by gamma counting; assay type: ADME, organism-based; conditions: in vivo
Pancreas [22] = test: Biodistribution in ddY mouse pancreas at 3.3 to 6.7 kBq, iv after 10 mins by gamma counting; assay type: ADME, organism-based; conditions: in vivo
Pancreas [23] = test: Biodistribution in ddY mouse pancreas at 3.3 to 6.7 kBq, iv after 30 mins by gamma counting; assay type: ADME, organism-based; conditions: in vivo, 0.5 h
Pancreas [24] = test: Biodistribution in ddY mouse pancreas at 3.3 to 6.7 kBq, iv after 60 mins by gamma counting; assay type: ADME, organism-based; conditions: in vivo, 1 h
Heart [25] = test: Biodistribution in ddY mouse heart at 3.3 to 6.7 kBq, iv after 2 mins by gamma counting; assay type: ADME, organism-based; conditions: in vivo
Heart [26] = test: Biodistribution in ddY mouse heart at 3.3 to 6.7 kBq, iv after 10 mins by gamma counting; assay type: ADME, organism-based; conditions: in vivo
Heart [27] = test: Biodistribution in ddY mouse heart at 3.3 to 6.7 kBq, iv after 30 mins by gamma counting; assay type: ADME, organism-based; conditions: in vivo, 0.5 h
Heart [28] = test: Biodistribution in ddY mouse heart at 3.3 to 6.7 kBq, iv after 60 mins by gamma counting; assay type: ADME, organism-based; conditions: in vivo, 1 h
Stomach [29] = test: Biodistribution in ddY mouse stomach assessed per organ at 3.3 to 6.7 kBq, iv after 2 mins by gamma counting; assay type: ADME, organism-based; conditions: in vivo
Stomach [30] = test: Biodistribution in ddY mouse stomach assessed per organ at 3.3 to 6.7 kBq, iv after 10 mins by gamma counting; assay type: ADME, organism-based; conditions: in vivo
Stomach [31] = test: Biodistribution in ddY mouse stomach assessed per organ at 3.3 to 6.7 kBq, iv after 30 mins by gamma counting; assay type: ADME, organism-based; conditions: in vivo, 0.5 h
Stomach [32] = test: Biodistribution in ddY mouse stomach assessed per organ at 3.3 to 6.7 kBq, iv after 60 mins by gamma counting; assay type: ADME, organism-based; conditions: in vivo, 1 h
Brain [33] = test: Biodistribution in ddY mouse brain at 3.3 to 6.7 kBq, iv after 2 mins by gamma counting; assay type: ADME, organism-based; conditions: in vivo
Brain [34] = test: Biodistribution in ddY mouse brain at 3.3 to 6.7 kBq, iv after 10 mins by gamma counting; assay type: ADME, organism-based; conditions: in vivo
Brain [35] = test: Biodistribution in ddY mouse brain at 3.3 to 6.7 kBq, iv after 30 mins by gamma counting; assay type: ADME, organism-based; conditions: in vivo, 0.5 h
Brain [36] = test: Biodistribution in ddY mouse brain at 3.3 to 6.7 kBq, iv after 60 mins by gamma counting; assay type: ADME, organism-based; conditions: in vivo, 1 h
Brain [37] = test: Ratio of drug uptake in ddY mouse brain after 2 mins to drug uptake in ddY mouse brain after 30 mins; assay type: ADME, tissue-based; conditions: in vivo
Homo sapiens [38] = species: Homo sapiens; test: Selectivity ratio of Ki for amyloid beta(1 to 42) to Ki for human Tau
Homo sapiens [39] = species: Homo sapiens; test: Selectivity ratio of EC50 for amyloid beta(1 to 42) to EC50 for human Tau
[40] = biological target: Microtubule-associated protein tau (Homo sapiens, UniProt P10636); test: Binding affinity to human Tau aggregates after 30 mins by Thioflavin-S-based fluorescence assay
Chain of Microtubule-associated protein tau (P10636 whole entry): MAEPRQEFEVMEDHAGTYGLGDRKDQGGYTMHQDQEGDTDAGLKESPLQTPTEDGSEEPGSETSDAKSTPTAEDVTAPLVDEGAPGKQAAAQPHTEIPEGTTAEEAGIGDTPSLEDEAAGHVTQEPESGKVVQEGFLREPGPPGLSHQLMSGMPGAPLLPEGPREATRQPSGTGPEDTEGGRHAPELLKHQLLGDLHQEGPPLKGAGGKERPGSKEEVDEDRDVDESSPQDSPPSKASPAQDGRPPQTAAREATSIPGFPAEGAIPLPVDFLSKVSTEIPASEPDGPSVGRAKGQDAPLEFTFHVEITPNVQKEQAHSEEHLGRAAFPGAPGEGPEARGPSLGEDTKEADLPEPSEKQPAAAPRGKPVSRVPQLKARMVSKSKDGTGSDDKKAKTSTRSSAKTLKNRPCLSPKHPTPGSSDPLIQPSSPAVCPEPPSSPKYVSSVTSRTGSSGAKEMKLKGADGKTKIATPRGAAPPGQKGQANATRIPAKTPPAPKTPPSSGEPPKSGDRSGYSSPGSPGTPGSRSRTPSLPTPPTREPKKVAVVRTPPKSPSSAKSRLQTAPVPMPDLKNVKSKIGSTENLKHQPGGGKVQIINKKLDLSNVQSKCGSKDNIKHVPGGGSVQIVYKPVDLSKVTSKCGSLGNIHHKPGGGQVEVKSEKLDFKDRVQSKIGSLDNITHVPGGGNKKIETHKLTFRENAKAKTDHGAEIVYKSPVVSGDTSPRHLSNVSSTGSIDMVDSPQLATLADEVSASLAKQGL

[41] = biological target: Amyloid-beta precursor protein (Homo sapiens, UniProt P05067); test: Binding affinity to amyloid beta(1 to 42) aggregates after 30 mins by Thioflavin-S-based fluorescence assay
Chain of Amyloid-beta precursor protein (P05067 whole entry): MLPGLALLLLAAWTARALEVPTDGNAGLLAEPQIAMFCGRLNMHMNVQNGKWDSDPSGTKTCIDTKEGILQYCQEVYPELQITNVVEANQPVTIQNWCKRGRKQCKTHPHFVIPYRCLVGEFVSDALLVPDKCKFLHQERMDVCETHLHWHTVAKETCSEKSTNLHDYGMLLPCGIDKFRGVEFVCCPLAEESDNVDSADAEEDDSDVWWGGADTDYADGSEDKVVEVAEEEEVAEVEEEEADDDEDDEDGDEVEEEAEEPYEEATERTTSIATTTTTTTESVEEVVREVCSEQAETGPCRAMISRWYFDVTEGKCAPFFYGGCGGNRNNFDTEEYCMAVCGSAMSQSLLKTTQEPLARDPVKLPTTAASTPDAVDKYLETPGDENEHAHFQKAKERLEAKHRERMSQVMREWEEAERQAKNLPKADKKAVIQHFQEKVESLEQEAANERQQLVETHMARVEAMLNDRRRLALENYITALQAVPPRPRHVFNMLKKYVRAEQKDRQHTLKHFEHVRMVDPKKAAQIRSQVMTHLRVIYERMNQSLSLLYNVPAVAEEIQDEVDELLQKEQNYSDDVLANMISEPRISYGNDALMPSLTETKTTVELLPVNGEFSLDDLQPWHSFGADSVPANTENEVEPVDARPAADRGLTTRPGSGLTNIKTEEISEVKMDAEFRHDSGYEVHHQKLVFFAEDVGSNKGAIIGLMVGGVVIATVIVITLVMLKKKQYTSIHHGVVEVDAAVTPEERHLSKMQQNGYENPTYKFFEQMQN

Homo sapiens [42] = species: Homo sapiens; test: Binding affinity to neurofibrillary tangles in entorhinal cortex of alzheimer disease patient after 10 mins by Thioflavin-S-based fluorescence microscopy; assay type: tissue-based

SMILES: CNc1ccc(-c2ccc3ccccc3n2)cc1
- Ratio EC50 (Homo sapiens [39]): 1.65

SMILES: CN(C)c1ccc(C=C2C(=O)Nc3ccc([125I])cc32)cc1
- Drug uptake (Blood [1]): 1.77 % ID/g
- Drug uptake (Blood [2]): 1.64 % ID/g
- Drug uptake (Blood [3]): 1.07 % ID/g
- Drug uptake (Blood [4]): 0.69 % ID/g
- Drug uptake (Liver [5]): 12.37 % ID/g
- Drug uptake (Liver [6]): 10.56 % ID/g
- Drug uptake (Liver [7]): 9.43 % ID/g
- Drug uptake (Liver [8]): 6.89 % ID/g
- Drug uptake (Kidney [9]): 9.63 % ID/g
- Drug uptake (Kidney [10]): 5.04 % ID/g
- Drug uptake (Kidney [11]): 3.83 % ID/g
- Drug uptake (Kidney [12]): 2.51 % ID/g
- Drug uptake (Intestine [13]): 1.57 % ID/g
- Drug uptake (Intestine [14]): 2.54 % ID/g
- Drug uptake (Intestine [15]): 8.33 % ID/g
- Drug uptake (Intestine [16]): 12.11 % ID/g
- Drug uptake (Spleen [17]): 3.66 % ID/g
- Drug uptake (Spleen [18]): 3.37 % ID/g
- Drug uptake (Spleen [19]): 1.2 % ID/g
- Drug uptake (Spleen [20]): 0.66 % ID/g
- Drug uptake (Pancreas [21]): 5.08 % ID/g
- Drug uptake (Pancreas [22]): 3.19 % ID/g
- Drug uptake (Pancreas [23]): 1.76 % ID/g
- Drug uptake (Pancreas [24]): 0.6 % ID/g
- Drug uptake (Heart [25]): 10.17 % ID/g
- Drug uptake (Heart [26]): 2.53 % ID/g
- Drug uptake (Heart [27]): 1.3 % ID/g
- Drug uptake (Heart [28]): 0.61 % ID/g
- Drug uptake (Stomach [29]): 0.91 %ID
- Drug uptake (Stomach [30]): 1.64 %ID
- Drug uptake (Stomach [31]): 3.52 %ID
- Drug uptake (Stomach [32]): 3.57 %ID
- Drug uptake (Brain [33]): 2.47 % ID/g
- Drug uptake (Brain [34]): 2.1 % ID/g
- Drug uptake (Brain [35]): 1.43 % ID/g
- Drug uptake (Brain [36]): 0.44 % ID/g
- Ratio (Brain [37]): 1.7

SMILES: CN(C)c1ccc(/C=C2\Nc3ccc(I)cc3C2=O)cc1
- Ki [40]: 17 nM
- Ki [41]: 31 nM
- Ratio Ki (Homo sapiens [38]): 1.77
- Activity (Homo sapiens [42]): Active

SMILES: Nc1ccc(-c2ccc3cc(OCC[18F])ccc3n2)cc1
- Ratio (Brain [37]): < 2

Other lines, results leading:

- Drug uptake (Blood [1]): 7.5 % ID/g
- Drug uptake (Blood [2]): 4.97 % ID/g
- Drug uptake (Blood [3]): 3.3 % ID/g
- Drug uptake (Blood [4]): 1.95 % ID/g
- Drug uptake (Liver [5]): 9.51 % ID/g
- Drug uptake (Liver [6]): 12.4 % ID/g
- Drug uptake (Liver [7]): 11.59 % ID/g
- Drug uptake (Liver [8]): 6.26 % ID/g
- Drug uptake (Kidney [9]): 13.48 % ID/g
- Drug uptake (Kidney [10]): 18.16 % ID/g
- Drug uptake (Kidney [11]): 19.35 % ID/g
- Drug uptake (Kidney [12]): 10.01 % ID/g
- Drug uptake (Intestine [13]): 2.29 % ID/g
- Drug uptake (Intestine [14]): 4.24 % ID/g
- Drug uptake (Intestine [15]): 7.55 % ID/g
- Drug uptake (Intestine [16]): 9.86 % ID/g
- Drug uptake (Spleen [17]): 6.97 % ID/g
- Drug uptake (Spleen [18]): 9.67 % ID/g
- Drug uptake (Spleen [19]): 14.05 % ID/g
- Drug uptake (Spleen [20]): 7.75 % ID/g
- Drug uptake (Pancreas [21]): 5.43 % ID/g
- Drug uptake (Pancreas [22]): 2.95 % ID/g
- Drug uptake (Pancreas [23]): 2.25 % ID/g
- Drug uptake (Pancreas [24]): 1.4 % ID/g
- Drug uptake (Heart [25]): 8.52 % ID/g
- Drug uptake (Heart [26]): 5.36 % ID/g
- Drug uptake (Heart [27]): 6.32 % ID/g
- Drug uptake (Heart [28]): 2.65 % ID/g
- Drug uptake (Stomach [29]): 0.77 %ID
- Drug uptake (Stomach [30]): 1.7 %ID
- Drug uptake (Stomach [31]): 2.96 %ID
- Drug uptake (Stomach [32]): 2.92 %ID
- Drug uptake (Brain [33]): 2.45 % ID/g
- Drug uptake (Brain [34]): 1.75 % ID/g
- Drug uptake (Brain [35]): 0.74 % ID/g
- Drug uptake (Brain [36]): 0.23 % ID/g
- Ratio (Brain [37]): 3.31
SMILES: CNc1ccc(/C=C2\Nc3ccc([125I])cc3C2=O)cc1

- Ratio Ki (Homo sapiens [38]): 7.33
SMILES: O=C1/C(=C/c2ccc(-c3cccc(I)c3)o2)NC(=S)N1CCc1c[nH]cn1

- Ratio (Brain [37]): 1.23
SMILES: CN(C)c1ccc(/N=N/c2nc3ccc(OCCOCCOCC[18F])cc3s2)cc1
